Structures can show the parent of a compound that is named as a salt.
Experiments:
in vivo = conditions: both, New Zealand albino, rabbit; for AUC / Cmax / Tmax: topical or ocular
Experimental: In both groups, individual fluoroquinolones were dissolved at concentration of 0.1%. Thus, the total fluoroquinolones concentration in group A and group B were 0.4% and 0.5%, respectively. Sterile boric acid (1.9% w/v) in water was used as the aqueous media and the final formulations were filtered using 0.22 μ filter and autoclaved further before use.
Study protocol and experimental procedures were approved by the Institutional Animal Ethics Committee of All India Institute of Medical Sciences (AIIMS), New Delhi, India. New Zealand albino rabbits of either sex (1.5–2.0 kg) were obtained from Central Animal Facility, AIIMS. Animals were housed at standard laboratory conditions temperature-controlled room at 24 ± 2°C and humidity 55 ± 15% and given food and water ad libitum. All experiments were performed in accordance to the Association for Research in Vision and Ophthalmology (ARVO) statement for the use of animals in ophthalmic and vision research.
The sterile cocktail formulations of group A and group B were individually instilled (50 μL) on the lower fornix of rabbit eyes (n = 4) with the help of a calibrated micropipette. […] For each time point, a volume amounting to 50 μL of aqueous humor was aspirated through the corneal surface. The aqueous humor samples obtained were stored at −80°C until quantification by HPLC.
A Thermo Finnigan (Thermo Electron Corporation, USA) HPLC equipped with degasser, quaternary pump, autosampler, and PDA detector was employed for quantification of fluoroquinolones in samples. In the chromatographic quantification, analytical separation was performed using a C18 Symmetry Shield column (4.6 × 150 mm, 5 μm, Waters, USA) under a gradient flow of methanol, acetonitrile, and potassium phosphate buffer (20 mM, pH 2.5) at different ratio and time. For each spiked compound an external calibration curve was plotted and the analyte's spectra was assessed by matching them with custom made PDA spectra of inbuilt library of Chromquest version 4 (Thermo Electron Corporation, USA).
The dried concentrate was reconstituted with 100 μL mixture of water and acetonitrile (1 : 1), and 20 μL of the obtained supernatant was injected for quantification.
In Vivo Data Permeability coefficients (logPC) were obtained from controlled in vivo experiment conducted in rabbits using cassette dosing (N-in-One) approach.

[1] = Experimentally derived Δlog P by shake flask method (OECD No. 107 and 117); assay type: physicochemical; conditions: difference of log P(o/w) and log P(cyclohexane/water)

| SMILES | logPC (30 min) (in vivo) | logPC (240 min) (in vivo) | AUC (in vivo) [ng·h/mL] | Cmax (in vivo) [ng/mL] | Tmax (in vivo) [h] | ΔlogP (Cyclohexane-Octanol) [1] |
| --- | --- | --- | --- | --- | --- | --- |
| COc1c(N2C[C@@H]3CCCN[C@@H]3C2)c(F)cc2c(=O)c(C(=O)O)cn(C3CC3)c12 [Moxifloxacin] |  |  | 1040 | 594 ± 294 | 0.5 |  |
| CCn1cc(C(=O)O)c(=O)c2cc(F)c(N3CCNCC3)cc21 [Norfloxacin] | −5.051 | −6.382 | 2850 | 456 ± 59 | 1 | 0.051 |
| C[C@@H]1CN(c2c(F)c(N)c3c(=O)c(C(=O)O)cn(C4CC4)c3c2F)C[C@H](C)N1 [Sparfloxacin] | −4.753 | −6.396 | 1770 | 1150 ± 514 | 0.5 | 1.025 |

Other lines, results leading:

| logPC (30 min) (in vivo) | logPC (240 min) (in vivo) | AUC (in vivo) [ng·h/mL] | Cmax (in vivo) [ng/mL] | Tmax (in vivo) [h] | ΔlogP (Cyclohexane-Octanol) [1] | SMILES |
| --- | --- | --- | --- | --- | --- | --- |
| −5.006 | −6.628 | 1180 | 682 ± 904 | 0.5 | 0.526 | COc1c(N2CCNC(C)C2)c(F)cc2c(=O)c(C(=O)O)cn(C3CC3)c12 (stereo not shown) [Gatifloxacin] |
|  |  |  |  | 1 | 0.734 | C[C@H]1COc2c(N3CCN(C)CC3)c(F)cc3c(=O)c(C(=O)O)cn1c23 [Levofloxacin] |
| −5.519 | −6.859 | 833 | 266 ± 46 | 1 | 1.113 | CCn1cc(C(=O)O)c(=O)c2cc(F)c(N3CCNC(C)C3)c(F)c21 (stereo not shown) [Lomefloxacin HCl, Lomefloxacin] |
|  |  |  |  | 1 | 0.759 | CC1COc2c(N3CCN(C)CC3)c(F)cc3c(=O)c(C(=O)O)cn1c23 (stereo not shown) [Ofloxacin] |

From article PMC3043298, “Development of Novel In Silico Model to Predict Corneal Permeability for Congeneric Drugs: A QSPR Approach” (Journal of Biomedicine and Biotechnology, 2011)
